Experimental data taken from patent US9067892B2, “Spiroheterocyclic N-oxypiperidines as pesticides” (Syngenta Crop Protection, Inc., priority 2008, dated 2015).
Read-outs that look alike come from different tables or passages of the source.

What was measured:
[1] = tested on: Myzus persicae (green peach aphid); experiment: Example B14: drench activity against Myzus persicae in field soil, persistence, comparison with state of the art; type: in vivo; settings: for mortality at 12.5 ppm: Myzus persicae, soil, pepper plants in field soil, read-out: Mortality (%) xx days after application (drench, systemic action, persistence)
Protocol: (§1) Six weeks old pepper plants cultivated in field soil are treated as drench application at various rates (mg a.i./liter soil). The same day, plants are infested with a mixed population of M. persicae and incubated in the greenhouse under optimal greenhouse conditions. Samples are assessed 7 days after infestation on mortality. Treated plants are re-infested 7, 14, 21 and 28 days after application. Evaluation is always done 7 days after infestation. Plants are also checked for damage (phytotoxicity), visual assessment being made using a 0-100% rating scale (100%=total damage to plant; 0%=no damage to plant).

pepper plants = settings: in vivo
Protocol: as §1

[2] = tested on: Thrips Tabaci (onion thrips); experiment: Example B3: Thrips tabaci, mixed population, feeding/residual contact activity, preventive; type: in vivo; settings: foliar, 144 h, sunflower leaf discs sprayed, 6 days incubation, mortality
[3] = tested on: Tetranychus urticae (two-spotted spider mite); experiment: Example B4: Tetranychus urticae, mixed population, feeding/residual contact activity, preventive; type: in vivo; settings: foliar, 192 h, bean leaf discs sprayed, 8 days, egg, larval and adult mortality
Source text: Activity Against Tetranychus urticae (Two-Spotted Spider Mite) (Mixed Population, Feeding/Residual Contact Activity, Preventive) Bean leaf discs on agar in 24-well microtiter plates are sprayed with test solutions. […] 8 days later, discs are checked for egg mortality, larval mortality, and adult mortality.

[4] = tested on: Nilaparvata lugens (brown rice planthopper); experiment: Example B8: Nilaparvata lugens, larvicide, feeding/contact; type: in vivo; settings: rice seedlings sprayed, N3 nymphs, 6-12 days after treatment
Protocol: Activity Against Nilaparvata lugens (Brown Rice Planthopper) (Larvicide, Feeding/Contact) Rice seedlings are treated with the diluted test solutions in a spray chamber. After drying, they are infested with 20 N3 nymphs (2 replicates). 6-12 days after the treatment samples are checked for mortality, growth regulation, and effects on the F1 generation.

[5] = tested on: Aphis craccivora (cowpea aphid); experiment: Example B10: Aphis craccivora, mixed population, systemic/feeding; type: in vivo; settings: 144 h, roots of infested pea seedlings in test solution, 6 days, mortality
Source text: 6 days later, samples are checked for mortality.

[6] = tested on: Aphis craccivora (cowpea aphid); experiment: Example B11: translaminar activity against Aphis craccivora; type: in vivo; settings: 120 h, French bean leaves, aphids on lower side, upper side painted, 5 days, mortality
Protocol: Translaminar Activity Against Aphis craccivora (Cowpea Aphid) French bean leaves (Phaseolus vulgaris) are infested with about 20 mixed age individuals on the lower leaf side using clip cages. 1 day after the infestation, the upper side of the leaves is treated with the test solution by painting. 5 days later, samples are checked for mortality.

[7] = tested on: Myzus persicae (green peach aphid); experiment: Example B13: drench activity against Myzus persicae; type: in vivo; settings: 168 h, pea seedlings in field soil, 7 days after infestation, mortality
Protocol: Drench Activity Against Myzus persicae (Green Peach Aphid) Pea seedlings cultivated in field soil are treated as drench application and infested with a mixed population of M. persicae. 7 days after infestation, samples are checked for mortality.

[8] = tested on: Aphis craccivora (cowpea aphid); experiment: Example B15: Aphis craccivora, mixed population, adjuvant effect, curative; type: in vivo; settings: for Abbott's efficacy (%) against Aphis craccivora: 3 ppm, formulated as EC050, adjuvant 0.1% (v/v) where named, broad bean plants, 7 days after treatment
Protocol: One day after infestation, plants are treated with diluted test solutions of the compound formulated as EC050 in a spray chamber (4 replicates). […] Efficacy was calculated with the aid of Abbott's formula.

[9] = tested on: Myzus persicae (green peach aphid); experiment: Example B16: Myzus persicae on pepper plants, feeding/residual contact activity; type: in vivo; settings: 144 h, infested pepper plants sprayed, 6 days after treatment, mortality, read-out: activity against Myzus persicae
[10] = tested on: Myzus persicae (green peach aphid); experiment: Example B2: Myzus persicae, mixed population, systemic/feeding activity, curative; settings: 144 h, read-out: activity
[11] = tested on: Myzus persicae (green peach aphid); experiment: Example B1: Myzus persicae, mixed population, feeding/residual contact activity, preventive; settings: foliar, 144 h, read-out: activity
[12] = 0 days after application (infestation day; evaluated 7 days after infestation)
[13] = 14 days after application (re-infestation; evaluated 7 days after infestation)
[14] = 21 days after application (re-infestation; evaluated 7 days after infestation)
[15] = 28 days after application (re-infestation; evaluated 7 days after infestation)
[16] = 168 h, 7 days after application (re-infestation; evaluated 7 days after infestation)

Compound	mortality at 12.5 ppm [1, 12] [%]	mortality at 12.5 ppm [1, 13] [%]	mortality at 12.5 ppm [1, 14] [%]	mortality at 12.5 ppm [1, 15] [%]	mortality at 12.5 ppm [1, 16] [%]	plant compatibility on pepper plants (in words) (pepper plants)	pest or weed control at 400 ppm [2] [%]	pest or weed control at 400 ppm [3] [%]	pest or weed control at 400 ppm [4] [%]	pest or weed control at 400 ppm [5] [%]	pest or weed control at 400 ppm [6] [%]	pest or weed control at 25 ppm [7] [%]	insecticidal action on Myzus persicae (in words) ([1]; summary of Table B14, drench)	Abbott's efficacy (%) against Aphis craccivora ([8]; Table B15A) [%]	Abbott's efficacy (%) against Aphis craccivora ([8]; Table B15B) [%]	effect of adjuvants on insecticidal activity (in words) ([8]; summary of Tables B15A and B15B)	pest or weed control at 200 ppm [9] [%]	pest or weed control at 400 ppm [10] [%]	pest or weed control at 400 ppm [11] [%]
CCOC(=O)OC1=C(c2c(C)cc(C)cc2C)C(=O)NC12CCN(OC)CC2 [A18, reference compound]	100	98	95	95	100	damages these to an untolerable high extend	–	–	–	–	–	–	–	–	–	–	–	–	–
CCOC(=O)OC1=C(c2c(C)cc(C)cc2C)C(=O)N(C)C12CCN(OC)CC2 [P1.2, Carbonic acid ethyl ester 8-methoxy-1-methyl-2-oxo-3-(2,4,6-trimethyl-phenyl)-1,8-diaza-spiro[4.5]dec-3-en-4-yl ester]	98	98	100	98	98	no damage at all	> 80	> 80	> 80	> 80	> 80	> 80	very similar to the action of the compound of the state of the art	54	25	enhance the insecticidal activity of compound P1.2 significantly	≥ 80	> 80	> 80
CCOC(=O)OC1=C(c2c(C)cc(C)cc2C)C(=O)N(COC)C12CCN(OC)CC2 [P1.3]	–	–	–	–	–	–	> 80	> 80	> 80	> 80	> 80	> 80	–	–	–	–	–	> 80	> 80
CCOC(=O)OC1=C(c2c(C)cc(C)cc2C)C(=O)N(COCCOC)C12CCN(OC)CC2 [P1.18]	–	–	–	–	–	–	> 80	> 80	> 80	> 80	> 80	> 80	–	–	–	–	–	> 80	> 80
CON1CCC2(CC1)C(O)=C(c1c(C)cc(C)cc1C)C(=O)N2C [P2.2, 4-hydroxy-8-methoxy-1-methyl-3-(2,4,6-trimethyl-phenyl)-1,8-diaza-spiro[4.5]dec-3-en-2-one]	–	–	–	–	–	–	> 80	> 80	> 80	> 80	> 80	> 80	–	–	–	–	≥ 80	> 80	> 80
COCN1C(=O)C(c2c(C)cc(C)cc2C)=C(O)C12CCN(OC)CC2 [P2.6]	–	–	–	–	–	–	> 80	> 80	> 80	> 80	> 80	> 80	–	–	–	–	≥ 80	> 80	> 80
COCCOCN1C(=O)C(c2c(C)cc(C)cc2C)=C(O)C12CCN(OC)CC2 [P2.19]	–	–	–	–	–	–	> 80	> 80	> 80	> 80	> 80	> 80	–	–	–	–	–	> 80	> 80
